Measured values published in PubChem BioAssay AID248 (DTP/NCI, 2004).
Toxic doses and inconclusive results are not listed. Cut-off read from the data, not from the text of the source: active = T/C of 150% or more; inactive = T/C below 125%.

Test system: L1210 leukemia ip in BDF1 mice, survival T/C
Test: NCI In Vivo Anticancer Drug Screen. Data for tumor model L1210 Leukemia (intraperitoneal) in B6D2F1 (BDF1) mice
Conditions: endpoint: mean survival time, higher = longer survival
How it was run: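 Value reflects the ratio of survival in compound-treated mice to survival in vehicle-treated controls, with both groups carrying the same transplanted tumor.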

[1] = dose: 100.0 mg/kg/injection, schedule: Q04DX003 (ip), vehicle: saline
[2] = dose: 200.0 mg/kg/injection, schedule: Q04DX003 (ip), vehicle: saline
[3] = dose: 100.0 mg/kg/injection, schedule: Q01DX009 (ip), vehicle: Klucel (hydroxypropylcellulose) (HPC)
[4] = dose: 100.0 mg/kg/injection, schedule: Q04DX003 (ip), vehicle: Klucel (hydroxypropylcellulose) (HPC)
[5] = dose: 200.0 mg/kg/injection, schedule: Q01DX009 (ip), vehicle: Klucel (hydroxypropylcellulose) (HPC)
[6] = dose: 200.0 mg/kg/injection, schedule: Q04DX003 (ip), vehicle: Klucel (hydroxypropylcellulose) (HPC)
[7] = dose: 400.0 mg/kg/injection, schedule: Q01DX009 (ip), vehicle: Klucel (hydroxypropylcellulose) (HPC)
[8] = dose: 400.0 mg/kg/injection, schedule: Q04DX003 (ip), vehicle: Klucel (hydroxypropylcellulose) (HPC)
[9] = dose: 100.0 mg/kg/injection, schedule: Q01DX001 (ip), vehicle: saline
[10] = dose: 200.0 mg/kg/injection, schedule: Q01DX001 (ip), vehicle: saline
[11] = dose: 400.0 mg/kg/injection, schedule: Q01DX001 (ip), vehicle: saline
[12] = dose: 100.0 mg/kg/injection, schedule: Q04DX003 (ip), vehicle: saline with Tween-80
[13] = dose: 200.0 mg/kg/injection, schedule: Q04DX003 (ip), vehicle: saline with Tween-80

Measured: T/C

O=C1c2c(Cl)cccc2Cc2cccc(Cl)c21
inactive: dose: 37.5 mg/kg/injection, schedule: Q01DX001 (ip), vehicle: Klucel (hydroxypropylcellulose) (HPC) 107 % of control | dose: 75.0 mg/kg/injection, schedule: Q01DX001 (ip), vehicle: Klucel (hydroxypropylcellulose) (HPC) 102 % of control | dose: 150.0 mg/kg/injection, schedule: Q01DX001 (ip), vehicle: Klucel (hydroxypropylcellulose) (HPC) 100 % of control

C1=CN2CC(c3ccccc3)=NNC2c2ccccc21 (stereo not drawn)
inactive: dose: 100.0 mg/kg/injection, schedule: Q04DX003 (ip), vehicle: alcohol 107 % of control | [1] 97 % of control | [2] 97 % of control

COC(=O)CCCCCNC(=O)NCCCCCC(=O)OC
inactive: [3] 90 % of control | [4] 95 % of control | [5] 87 % of control | [6] 93 % of control | [7] 90 % of control | [8] 93 % of control

COc1ccc(NC(=O)Nc2c(C)cccc2C)cc1
inactive: dose: 100.0 mg/kg/injection, schedule: Q01DX009 (ip), vehicle: gum acacia 97 % of control | dose: 100.0 mg/kg/injection, schedule: Q04DX003 (ip), vehicle: gum acacia 97 % of control | dose: 200.0 mg/kg/injection, schedule: Q01DX009 (ip), vehicle: gum acacia 97 % of control | dose: 200.0 mg/kg/injection, schedule: Q04DX003 (ip), vehicle: gum acacia 92 % of control | dose: 400.0 mg/kg/injection, schedule: Q01DX009 (ip), vehicle: gum acacia 92 % of control | dose: 400.0 mg/kg/injection, schedule: Q04DX003 (ip), vehicle: gum acacia 91 % of control

O=C(NCc1ccncc1)Nc1ccccc1
inactive: dose: 100.0 mg/kg/injection, schedule: Q04DX002 (ip), vehicle: Klucel (hydroxypropylcellulose) (HPC) 103 % of control | dose: 200.0 mg/kg/injection, schedule: Q04DX002 (ip), vehicle: Klucel (hydroxypropylcellulose) (HPC) 103 % of control | dose: 400.0 mg/kg/injection, schedule: Q04DX002 (ip), vehicle: Klucel (hydroxypropylcellulose) (HPC) 106 % of control

O=C(NCCCl)NC1C(O)CCCC1O (stereo not drawn)
inactive: [9] 103 % of control | [10] 97 % of control | [11] 103 % of control

CCOC(=O)c1ccc(NC(=O)Oc2ccccc2OCC)cc1
inactive: [3] 97 % of control | [5] 95 % of control | [7] 90 % of control

O=[N+]([O-])c1ccc2c(c1)COCO2
inactive: [12] 95 % of control | [13] 95 % of control | dose: 400.0 mg/kg/injection, schedule: Q04DX003 (ip), vehicle: saline with Tween-80 97 % of control

CCCCCCC(C)OC(=O)CCSCCC(=O)OC(C)CCCCCC (stereo not drawn)
inactive: [9] 98 % of control | [10] 94 % of control | [11] 86 % of control

COc1cc(Cl)ccc1NC(=O)Oc1cccc(NC(C)=O)c1
inactive: [3] 100 % of control | [5] 89 % of control | [7] 100 % of control

COC(=O)C1C2OC3C(OC(=O)C31)C2Br (stereo not drawn)
inactive: [4] 91 % of control | [6] 96 % of control | [8] 102 % of control

O=C(Nc1ccccc1)OCC(CN1CCCCC1)OC(=O)Nc1ccccc1 (stereo not drawn)
inactive: dose: 12.5 mg/kg/injection, schedule: Q01DX009 (ip), vehicle: saline with Tween-80 97 % of control | dose: 25.0 mg/kg/injection, schedule: Q01DX009 (ip), vehicle: saline with Tween-80 99 % of control | dose: 50.0 mg/kg/injection, schedule: Q01DX009 (ip), vehicle: saline with Tween-80 99 % of control | dose: 100.0 mg/kg/injection, schedule: Q01DX009 (ip), vehicle: saline with Tween-80 86 % of control | [12] 98 % of control | dose: 200.0 mg/kg/injection, schedule: Q01DX009 (ip), vehicle: saline with Tween-80 91 % of control | [13] 90 % of control

CCN(CC)C(=O)C1CCCCC1C (stereo not drawn)
inactive: dose: 100.0 mg/kg/injection, schedule: Q04DX002 (ip), vehicle: saline 111 % of control | dose: 200.0 mg/kg/injection, schedule: Q04DX002 (ip), vehicle: saline 105 % of control

CC(O)C1CCCNC1 (stereo not drawn)
inactive: [1] 108 % of control | [2] 97 % of control

CC(Oc1cc(Cl)ccc1Cl)C(=O)O (stereo not drawn)
inactive: dose: 50.0 mg/kg/injection, schedule: Q04DX003 (ip), vehicle: Klucel (hydroxypropylcellulose) (HPC) 114 % of control | [3] 110 % of control | [4] 105 % of control | [5] 114 % of control | [6] 104 % of control | [7] 108 % of control

NCCCCCCNC(=O)CCC(=O)NCCCCCCN
inactive: dose: 8.0 mg/kg/injection, schedule: Q01DX Z (ip), vehicle: water 86 % of control | dose: 16.0 mg/kg/injection, schedule: Q01DX Z (ip), vehicle: water 91 % of control | dose: 32.0 mg/kg/injection, schedule: Q01DX Z (ip), vehicle: water 88 % of control | dose: 64.0 mg/kg/injection, schedule: Q01DX Z (ip), vehicle: saline 109 % of control | dose: 64.0 mg/kg/injection, schedule: Q01DX Z (ip), vehicle: water 91 % of control | dose: 128.0 mg/kg/injection, schedule: Q01DX Z (ip), vehicle: saline 88 % of control

C=C1C(=O)OC2CC/C=C\CCC12 (stereo not drawn)
inactive: dose: 50.0 mg/kg/injection, schedule: Q01DX009 (ip), vehicle: saline 95 % of control | dose: 100.0 mg/kg/injection, schedule: Q01DX009 (ip), vehicle: saline 103 % of control | dose: 200.0 mg/kg/injection, schedule: Q01DX009 (ip), vehicle: saline 95 % of control

N=C1C(=O)C(=N)c2ccccc2-c2ccccc21
inactive: [3] 94 % of control | [5] 97 % of control | [7] 95 % of control

O=C(O)/C=C/C(=O)NCCNC(=O)/C=C/C(=O)O
inactive: [4] 96 % of control | [6] 93 % of control | [8] 96 % of control

O=C(OC(c1c(Cl)cccc1Cl)c1nccc2ccccc12)c1ccccc1 (stereo not drawn)
inactive: dose: 100.0 mg/kg/injection, schedule: Q01DX001 (ip), vehicle: steriod suspending solution 95 % of control | dose: 200.0 mg/kg/injection, schedule: Q01DX001 (ip), vehicle: steriod suspending solution 97 % of control | dose: 400.0 mg/kg/injection, schedule: Q01DX001 (ip), vehicle: steriod suspending solution 88 % of control

CCCCCCCCN(C)/N=N/c1nc[nH]c1C(=O)OCC
inactive: dose: 50.0 mg/kg/injection, schedule: Q01DX001 (ip), vehicle: other 94 % of control | dose: 100.0 mg/kg/injection, schedule: Q01DX001 (ip), vehicle: other 105 % of control | dose: 200.0 mg/kg/injection, schedule: Q01DX001 (ip), vehicle: other 113 % of control | dose: 400.0 mg/kg/injection, schedule: Q01DX001 (ip), vehicle: other 105 % of control

CCOC(=O)Nc1cc(NC(C)CCCN(CC)CC)c2ncc(-c3ccc(Cl)c(Cl)c3)nc2n1 (stereo not drawn) (tested in a mixture with another compound)
inactive: dose: 6.25 mg/kg/injection, schedule: Q01DX001 (ip), vehicle: saline 99 % of control | dose: 6.25 mg/kg/injection, schedule: Q01DX009 (ip), vehicle: saline 91 % of control | dose: 12.5 mg/kg/injection, schedule: Q01DX001 (ip), vehicle: saline 101 % of control | dose: 12.5 mg/kg/injection, schedule: Q01DX009 (ip), vehicle: saline 95 % of control | dose: 25.0 mg/kg/injection, schedule: Q01DX001 (ip), vehicle: saline 89 % of control | dose: 25.0 mg/kg/injection, schedule: Q01DX009 (ip), vehicle: saline 106 % of control | [9] 103 % of control

O=C(O)c1cc(Br)sc1Br
inactive: dose: 100.0 mg/kg/injection, schedule: Q01DX001 (ip), vehicle: carboxymethylcellulose (CMC) 101 % of control | dose: 200.0 mg/kg/injection, schedule: Q01DX001 (ip), vehicle: carboxymethylcellulose (CMC) 95 % of control | dose: 400.0 mg/kg/injection, schedule: Q01DX001 (ip), vehicle: carboxymethylcellulose (CMC) 95 % of control
